Series [1] deals with patient-derived NSCLC organoid. The series can be described thus: Organoid drug response assay (CellTiter-Glo). In kind it is cell-based, human. The note with it: three days of drug incubation; three patient models. On the procedure:
All procedures performed involving human participants were approved by the Ethics Committee of Shanghai Jiao Tong University School of Medicine and were in accordance with the ethical standards of Helsinki Declaration (as revised in 2013). All the donors signed an informed consent form. Freshly excised tumor samples from patients were kept in MACS tissue storage solution (Miltenyi) at 4° C. upon harvest. Tumor tissues were minced into small pieces on ice, then incubated with 0.001% DNase (Sigma-Aldrich, MO, USA), 1 mg/mL collagenase/dispase (Roche, IN, USA), 200 U/mL penicillin, […], and […] amphotericin B (2% antibiotics, Sigma) in DMEM/F12 medium (Thermofisher) at 37° C. for three hours with gentle agitation and intermittent resuspension. Thereafter, the digested tissue suspension was repeatedly triturated via pipetting and passed through a 70 μm filter. The strained suspension was centrifuged at 112×g for three minutes, and red blood cells were lysed using lysis buffer (00443357, Thermofisher) for five minutes. […]
The organoids cultured over two weeks were harvested and dissociated using 1× TrypLe (Thermofisher). […] The plates were agitated for 30 minutes at room temperature (10° C.-30° C.) prior to measuring luminescence.
(Cellular ATP, detected with luciferase, serves as a proxy for viable cell number.)

Series [2] relates to peripheral blood mononuclear cells (PBMC). Kind of series: Toxicity on patients' PBMC. The class given is cell-based, human. The procedure:
Then, treating organoids in presence of 5 μg/mL pembrolizumab, in combination with either of these agents (AZD3965 at 0.1 μM, GSK2837808A at 1 μM, and WZHAb10 at 0.0006 μM) and each PBMC (FIGS. 18, 19 and 20). IgG was used as control in FIG. 18, IgG and/or vehicle were used as control in FIGS. 19-20.

Series [3] has as its target WT MCT1/BSG-2 (mouse) (UniProt P53986).
Series [4] deals with WT MCT4/BSG-2 (mouse) (UniProt P57787).

For the molecule `Cc1[nH]nc(C(F)(F)F)c1Cc1sc2c(c1C(=O)N1C[C@](C)(O)CO1)c(=O)n(C)c(=O)n2C(C)C` [AZD3965], in series [1], the “anti-proliferative effect of single agent on organoids” value is reported as “moderate anti-proliferative effect”. In addition, in series [2] (at 0.1 μM), the “effect on T cell growth (PBMC)” value is “little effects on T cell growth”.
As to `COc1ncc(-c2ccc3c(Nc4cc(Oc5cc(F)cc(F)c5)cc(C(=O)O)c4)c(S(=O)(=O)NC4CC4)cnc3c2)c(OC)n1` [GSK2837808A], the “anti-proliferative effect of single agent on organoids” value in series [1] was “moderate anti-proliferative effect”. Besides, the “effect on T cell growth (PBMC)” value in series [2] (at 1 μM) is listed as “little effects on T cell growth”.

B1: WZHAb10 (antibody, V domains shown)
VH: QVQLVQSGAEVKKPGASVKVSCKASGYTFTNYWIHWVRQAPGQGLEWMGMIHPNSGSINYNEKFKTRVTMTRDTSTSTVYMELSSLRSEDTAVYYCARVGSGSLDYWGQGTLVTVSS
VL: EIVLTQSPATLSLSPGERATLSCRASQSISDYLHWYQQKPGQAPRLLIKYVSQSISGIPARFSGSGSGTYFTLTISSLEPEDVAVYYCQNGEEAPYTFGQGTKLEIKR
For the molecule B1, the transport activity (H+ influx, H+-pyruvate symport in proteoliposomes) in series [3] stood at 75%. In addition, the transport activity (H+ influx, H+-L-lactate symport in proteoliposomes) in series [4] was found to be 50%.
